Source: patent US11230544B1, “Substituted 1,3,4-thiadiazoles as GLS1 inhibitors” (MEDSHINE DISCOVERY INC., priority 2018, dated 2022)
Structures can show the parent of a compound that is named as a salt.

Tests used:
GLS1 = target: T1, GLS1 (Homo sapiens, UniProt O94925); assay: Activity test of compounds in a GLS1 coupling reaction system; assay type: biochemical; details: enzyme GLS1 2 nM, 4.5 mM L-glutamine, 1 hour preincubation at 23° C.
T1 sequence (O94925 73-669 limits assumed): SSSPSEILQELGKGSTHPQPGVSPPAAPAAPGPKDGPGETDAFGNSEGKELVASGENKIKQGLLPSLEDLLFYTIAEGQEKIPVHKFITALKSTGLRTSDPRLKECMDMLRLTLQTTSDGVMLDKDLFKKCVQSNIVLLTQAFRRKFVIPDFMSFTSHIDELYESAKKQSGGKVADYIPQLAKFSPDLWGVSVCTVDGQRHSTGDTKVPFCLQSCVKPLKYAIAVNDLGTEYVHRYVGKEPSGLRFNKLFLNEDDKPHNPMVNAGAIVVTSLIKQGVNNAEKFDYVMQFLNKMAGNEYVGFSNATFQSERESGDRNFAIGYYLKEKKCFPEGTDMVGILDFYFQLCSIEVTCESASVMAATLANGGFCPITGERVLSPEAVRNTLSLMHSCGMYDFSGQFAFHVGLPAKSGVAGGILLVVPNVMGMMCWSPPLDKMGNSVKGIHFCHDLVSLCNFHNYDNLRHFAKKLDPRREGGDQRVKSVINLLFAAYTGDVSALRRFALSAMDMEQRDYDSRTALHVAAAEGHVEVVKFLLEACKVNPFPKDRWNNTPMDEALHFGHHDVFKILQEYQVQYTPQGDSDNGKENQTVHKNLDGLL
Protocol: Experimental Example 1: Activity Test of Compounds in a GLS1 Coupling Reaction System
The final concentration of each component in the final experimental buffer was 50 mM Tris-HCl pH 8.0, 0.25 mM EDTA, 150 mM K2HPO4, 0.1 mg/mL BSA, 1 mM DTT, and 0.01% o Triton X-100.
the 1× assay buffer was used to prepare “solution A” in the experiment (solution A contained L-glutamine, NAD+ and GLDH), and the final concentration of each component in the final experimental reaction system was 4.5 mM L-glutamine, 2 mM NAD+, and 4 U/mL GLDH; the 1× assay buffer was used to prepare “solution B” in the experiment—2× enzyme solution (solution B contained enzyme GLS1), and the final concentration of GLS1 in the final experimental reaction system was 2 nM.
The experiment plate was the plate prepared by Labcyte's ECHO that contained the gradient concentration of the compound and the corresponding DMSO solution before the experiment:
The experiment plate was taken out, and 20 μL of solution B (an enzyme GLS1 solution) was add to the 2nd to 23rd columns of the experiment plate, and then 20 μL of assay buffer was added to the 1st and 24th columns of the experiment plate, wherein the 1st and 24th columns were used as control groups of the experimental system; the plate was centrifuged at 1000 rpm for 30 seconds; the plate was sealed and incubated at 23° C. for 1 hour; I after 1 hour incubation, 20 μL of solution A was added to columns 1 to 24 of the experiment plate (i.e., addition of samples to the whole plate); the plate was centrifuged at 1000 […] for 30 seconds; the experiment plate was placed on SpectraMax 340PC, and read continuously for 20 minutes in the dynamic mode (the reading interval was set to 1 minute).

[1] = tested on: human myeloma RPMI-8226 cell; assay: In vivo pharmacodynamic study, CB-17 SCID nude mouse subcutaneous xenograft model of human myeloma RPMI-8226 cell; set-up: species or system mouse xenograft of human cells; details: for Tumor volume (mm^3) (Day 14): Mean ± SEM, PO, Poma 1 mg/kg QD, CB-839 or compound 2 100 mg/kg (D1-D10) 150 mg/kg (D11-D14) BID
From the text: Experimental Example 3 In Vivo Pharmacodynamic Study of a CB-17 SCID Nude Mouse Subcutaneous Xenograft Model of Human Myeloma RPMI-8226 Cell
Objective: Pomalidomide is used to treat multiple myeloma, and this experiment is used to study and evaluate the in vivo efficacy of the test compound combined with pomalidomide in the CB-17 SCID nude mouse subcutaneous xenograft model of human myeloma RPMI-8226 cell.
Experiment animals: female CB-17 SCID nude mice, 6 to 8 weeks old, with the body weigh of 18 to 22 grams; Supplier: Shanghai Lingchang Biological Technology Co., Ltd.
Human myeloma RPMI 8226 cells were cultured in a monolayer in vitro. The culture conditions were: RPMI 1640 medium (brand: gibco—22400089, batch: 1894220) supplemented with 10% fetal bovine serum, 100 U/mL penicillin and 100 μg/mL streptomycin, at 37° C. and 5% CO2. Conventional digestion treatment with pancreatin-EDTA for passage was carried out twice a week. When the cell confluence reached 80% to 90%, the cells were harvested, counted and inoculated.
0.2 mL (6×10^6 cells) of RPMI 8226 cells (supplemented with matrigel in a volume ratio of 1:1) were subcutaneously inoculated on the right back of each mouse. The grouping and administration were started when the average tumor volume reached 374 mm^3.
The test compound (compound 2) was formulated into a clear solution of 10 mg/mL, and the solvent was a 10 mM citric acid buffer containing 0.2% Tween-80 and 25% hydroxypropyl-β-cyclodextrin, pH=4. CB-839 was formulated into a clear solution of 10 mg/mL, and the solvent was a 10 mM citric acid buffer containing 25% hydroxypropyl-β-cyclodextrin, pH=2.2. Pomalidomide (Poma) was formulated into a clear solution of 0.1 mg/mL, and the solvent was 20% PEG400+80% (20% hydroxypropyl-β-cyclodextrin).
The experimental index was to investigate whether the tumor growth was inhibited, delayed or cured. Tumor diameter was measured twice a week with a vernier caliper. The calculation formula of tumor volume was V=0.5a×b^2, wherein a and b represented the long and short diameters of the tumor, respectively.
The anti-tumor efficacy of the compound was evaluated by TGI (%) or relative tumor proliferation rate T/C (%). TGI (%) reflected the tumor growth inhibition rate. Calculation of TGI (%): TGI (%)=[1−(average tumor volume at the end of administration in a treatment group−average tumor volume at the beginning of administration in this treatment group)/(average tumor volume at the end of administration in the solvent control group-average tumor volume at the beginning of administration in the solvent control group)]×100%.
Relative tumor proliferation rate T/C (%): the calculation formula was as follows: T/C %=TRTV/CRTV×100% (TRTV: mean RTV of the treatment group; CRTV: mean RTV of the negative control group). The relative tumor volume (RTV) was calculated according to the results of the tumor measurement. The calculation formula was RTV=Vt/V0, where V0 was the tumor volume measured at beginning of the grouping and administration (i.e., d0), and Vt was the tumor volume at the time of a certain measurement. TRTV and CRTV were obtained from the data on the same day.
Statistical analysis included mean value and standard error (SEM) of the tumor volume of each group at each time point (see Table 4 for specific data). […] The comparison between two groups was analyzed by T-test, and the comparison between three or more groups was analyzed by one-way ANOVA.
Statistical analysis of synergy: method for calculating Q value (also known as King's formula method) was as follows: Q=TGIA+B/(TGIA+TGIB−TGIA×TGIB). TGIA, TGIB and TGIA+B were the tumor inhibition rates when drug A was used alone, drug B was used alone, and drug A and drug B were used in combination, respectively.
In the experiment, the effect of the test compound on the weight of the animal was investigated. […]

[2] = Pharmacokinetic evaluation of compounds in mice; assay type: in vivo; details: mouse, plasma, female C57BL/6 mice; for bioavailability: oral, gavage vs intravenous; for half-life: tail intravenous injection and gavage, read-out: T1/2 (half-life) (converted); for half-life / AUC(0-inf) / Cmax: route not given; for Cmax: read-out: Cmax (peak concentration)
Protocol: Experimental Example 2: Pharmacokinetic Evaluation of Compounds
Objective: To test the in vivo pharmacokinetics of the compounds in mice
C57BL/6 mice (female, 7-9 weeks old, Shanghai SLAC)
Experiment operations: The clear solution obtained by dissolving the test compound was administered to female C57BL/6 mice (overnight fasting, 7-9 weeks old) via tail intravenous injection and gavage, respectively. After administration of the test compound or the control compound, blood was collected from the mandibular vein of the intravenous injection group at 0.0833, 0.25, 0.5, 1, 2, 4, 6, 8 and 24 hours, and of the gavage group at 0.0833, 0.25, 0.5, 1, 2, 4, 6, 8 and 24 hours, respectively, and centrifuged to obtain plasma. The LC-MS/MS method was used to determine the blood drug concentration, and the WinNonlin™ Version 6.3 pharmacokinetic software was used to calculate the relevant pharmacokinetic parameters by the non-compartmental model linear logarithmic trapezoidal method.

SMILES	IC50 (GLS1) [µM]	further results
COc1cccc(C(OC)C(=O)Nc2nnc(N[C@H]3CC[C@@H](c4cccnn4)CC3)s2)c1 (stereo partly shown) [Compound 8 (trifluoroacetate salt)]	0.577	–
CO[C@H](C(=O)Nc1nnc(NC2CCC(c3cc(C(=O)O)cnn3)CC2)s1)c1cc(OC(F)(F)F)ccc1F (stereo partly shown) [Compound 6 (hydrochloride salt)]	1.69	–
COC(C(=O)Nc1nnc(N[C@H]2CC[C@@H](c3cccnn3)CC2)s1)c1cccc(OC(F)F)c1 (stereo partly shown) [Compound 11 (trifluoroacetate salt)]	0.72	–
COC(C(=O)Nc1nnc(NC2CCC(c3cccnn3)CC2)s1)c1cc(OC(F)(F)F)ccc1F (single isomer, unassigned) [Compound 4]	4.9	–
COc1cc(C(OC)C(=O)Nc2nnc(N[C@H]3CC[C@@H](c4cccnn4)CC3)s2)ccc1F (stereo partly shown) [Compound 12 (trifluoroacetate salt)]	4.71	–
Nc1cccc2c1C(=O)N(C1CCC(=O)NC1=O)C2=O (stereo not shown) [Poma, Pomalidomide]	–	Tumor volume (mm^3) (Day 14) ([1]; Day 14 after administration): 1542 ± 259 mm^3; Tumor volume (mm^3) (Day 14) ([1]; Day 14 after administration, listed as pomalidomide): 1,542 mm^3; anti-tumor effect compared with the solvent control group ([1]; Day 14 after administration, result in words): no significant anti-tumor effect; T/C (%) ([1]; relative tumor proliferation rate, Day 14, vs solvent control group): 68.8%; RTV (Day 14) ([1]; relative tumor volume Vt/V0, Day 14, same dosing as tumor volume): 4.22 ± 0.50; TGI (%) ([1]; tumor growth inhibition rate, Day 14, vs solvent control group): 34.0%
CO[C@H](C(=O)Nc1nnc(NC2CCC(c3cc4cc[nH]c4nn3)CC2)s1)c1cc(OC(F)(F)F)ccc1F (stereo partly shown) [Compound 14]	0.757	–
O=C(Cc1cccc(OC(F)(F)F)c1)Nc1ccc(CCCCc2nnc(NC(=O)Cc3ccccn3)s2)nn1 [CB-839, reference compound]	–	bioavailability [2]: 27.1%; half-life [2]: 4.69 h; AUC(0-inf) [2]: 27.7 µM·h; Cmax [2]: 18.1 µM
CO[C@H](C(=O)Nc1nnc(N[C@H]2CC[C@@H](c3cccnn3)CC2)s1)c1ccccc1 [Compound 10 (hydrochloride salt)]	1.59	–
CO[C@H](C(=O)Nc1nnc(NC2CCC(c3cc(C)cnn3)CC2)s1)c1cc(OC(F)(F)F)ccc1F (stereo partly shown) [Compound 5 (hydrochloride salt)]	0.469	–
COC(C(=O)Nc1nnc(N[C@H]2CC[C@@H](c3cccnn3)CC2)s1)c1cccc(OC(F)(F)F)c1 (stereo partly shown) [Compound 9 (hydrochloride salt)]	0.502	–

Further lines, with some results ahead:

IC50 (GLS1) [µM]	SMILES	further results
0.17	COC(C(=O)Nc1nnc(NC2CCC(c3cccnn3)CC2)s1)c1cc(OC(F)(F)F)ccc1F (single isomer, unassigned) [Compound 3]	–
0.18	CO[C@H](C(=O)Nc1nnc(NC2CC=C(c3cc4cc[nH]c4nn3)CC2)s1)c1cc(OC(F)(F)F)ccc1F (stereo partly shown) [Compound 13 (trifluoroacetate salt)]	–
0.133	CO[C@H](C(=O)Nc1nnc(NC2CC=C(c3ccc(N)nn3)CC2)s1)c1cc(OC(F)(F)F)ccc1F (stereo partly shown) [Compound 7 (hydrochloride salt)]	–
0.0965	COC(C(=O)Nc1nnc(NC2CC=C(c3cccnn3)CC2)s1)c1cc(OC(F)(F)F)ccc1F (single isomer, unassigned) [Compound 2]	bioavailability [2]: 34.8%; half-life [2]: 3.93 h; AUC(0-inf) [2]: 134 µM·h; Cmax [2]: 36.8 µM
0.132	COC(C(=O)Nc1nnc(NC2CC=C(c3cccnn3)CC2)s1)c1cc(OC(F)(F)F)ccc1F (single isomer, unassigned) [Compound 1]	–
